Experimental data from the NIST ThermoML archive (doi:10.1016/j.jct.2013.09.043).

Assay: xn = mol fraction of the nth substance listed
Conditions: 101 kPa, Liquid; for viscosity: Capillary tube (Ostwald / Ubbelohde) method; for mass density: Vibrating tube method

CCCCCC(C)O (stereo not drawn) [2-heptanol] + NC=O
Conditions | mass density, 298.15 K [kg/m3] | mass density, 303.15 K [kg/m3] | mass density, 308.15 K [kg/m3] | mass density, 313.15 K [kg/m3] | viscosity, 298.15 K [mPa·s] | viscosity, 303.15 K [mPa·s] | viscosity, 308.15 K [mPa·s] | viscosity, 313.15 K [mPa·s]
x2 = 0 | 813.38 | 809.5 | 805.72 | 801.46 | 5.296 | 4.315 | 3.535 | 2.96
x2 = 0.0819 | 821.08 | 817.04 | 813.18 | 808.95 | 5.094 | 4.157 | 3.403 | 2.842
x2 = 0.1603 | 829.46 | 825.3 | 821.41 | 817.16 | 4.915 | 4.021 | 3.299 | 2.767
x2 = 0.2402 | 839.28 | 835.08 | 831.16 | 826.89 | 4.744 | 3.905 | 3.219 | 2.718
x2 = 0.3508 | 855.44 | 851.28 | 847.38 | 843.03 | 4.541 | 3.773 | 3.131 | 2.669
x2 = 0.4402 | 871.35 | 867.27 | 863.34 | 858.97 | 4.385 | 3.673 | 3.07 | 2.637
x2 = 0.567 | 900.02 | 895.95 | 891.92 | 887.52 | 4.176 | 3.543 | 2.997 | 2.607
x2 = 0.6525 | 924.85 | 920.66 | 916.51 | 912.11 | 4.035 | 3.459 | 2.952 | 2.593
x2 = 0.7403 | 957.01 | 952.58 | 948.4 | 944.03 | 3.881 | 3.363 | 2.896 | 2.571
x2 = 0.8501 | 1010.97 | 1006.37 | 1002.12 | 997.89 | 3.647 | 3.204 | 2.792 | 2.51
x2 = 0.94 | 1072.96 | 1068.47 | 1064.24 | 1059.95 | 3.446 | 3.069 | 2.701 | 2.455
